Like-named read-outs stand apart in the source and are kept apart here.
Key:
BSA = target: T1, BSA (Bos taurus, UniProt P02769); experiment: Competitive BSA-fluorescence studies with warfarin and ibuprofen; type: binding, bovine; conditions: for BSA drug site preference: drug site I (warfarin) vs II (ibuprofen)
T1 construct: purchased Sigma-Aldrich Co
Method: where n = the number of binding sites per albumin and K = the SA–binding constant. The K constant (M−1) is calculated from the slope in plots (ΔI/I0)/[Q] versus (ΔI/I0) and n is given by the ratio of y intercept to the slope [S9].
S4.2 Competitive SA–fluorescence studies with warfarin and ibuprofen
The competitive studies with warfarin or ibuprofen (site probes) [S10] were performed by tryptophan fluorescence quenching experiments using a fixed concentration of the BSA and site probes (3 μM) in buffer (containing 15 mM trisodium citrate and 150 mM NaCl at pH 7.0). The fluorescence emission spectra were recorded in the presence of increasing amounts of the compounds as quenchers with an excitation wavelength of 295 nm. The Scatchard equation (eq. 7) [S6] and plots were applied on the corrected SA–fluorescence emission spectra in order to determine the BSA–binding constant of the compounds in the presence of warfarin or ibuprofen.

HSA = target: T2, HSA (Homo sapiens, UniProt P02768); experiment: HSA fluorescence quenching; type: binding; conditions: for ΔΙ/Ιο (%) HSA fluorescence quenching: HSA 3 μM; for K HSA-binding constant: Scatchard; for relative HSA-fluorescence emission intensity, % of the initial: final value
T2 construct: purchased Sigma-Aldrich Co
Method: S4 Interaction with serum albumins
S4.1 Study of the affinity for serum albumins
The albumin–binding study for the compounds was carried out by fluorescence emission quenching experiments using BSA (3 μM) or HSA (3 μM) in buffer solution (15 mM trisodium citrate and 150 mM NaCl at pH 7.0). The tested compounds were used as quenchers with gradually increasing concentrations to monitor the quenching of the emission intensity of tryptophan residues of BSA at 345 nm or HSA at 340 nm [S6]. The fluorescence emission spectra were recorded between 300–500 nm with excitation wavelength of 295 nm. All the experiments were conducted at room temperature. The fluorescence spectra of the compounds were recorded under the same experimental conditions and presented a low–intensity emission band in the region 395–415 nm.
Consequently, the SA fluorescence emission spectra were modified properly, by subtracting the spectra of the compounds, and quantitative studies followed.
The extent of the inner–filter effect can be roughly estimated with the following formula: […]
where Icorr= corrected intensity, Imeas= the measured intensity, c = the concentration of the quencher, d = the cuvette length (1 cm), ε(λexc) and ε(λem) = the ε of the quencher at the excitation and the emission wavelength, respectively, as calculated from the UV –vis spectra of the complexes [S 8].
The interaction of the quencher (i.e. compounds) with serum albumins [S6] was studied through the Stern–Volmer and Scatchard equations [S6] and corresponding graphs. The values of the respective Stern–Volmer constant KSV (M–1), the quenching constant k q (M–1s–1), the SA– binding constant K (M–1) and the number of binding sites per albumin (n) were calculated.
According to Stern–Volmer quenching equation [S6] (eq. S2), where I 0 = the initial tryptophan fluorescence intensity of SA, I = the tryptophan fluorescence intensity of SA after the addition of the quencher, kq = the quenching rate constants of SA, K SV = the dynamic quenching constant, τ0 = the average lifetime of SA without the quencher, [Q] = the concentration of the quencher), the Stern –Volmer constant (KSV, M–1) can be obtained by the slope of the diagram I0/I versus [Q]. Taking τ0 = 10–8 s as fluorescence lifetime of tryptophan in SA [S2], the quenching constant (kq, M–1s–1) is calculated from equation S3.
From the Scatchard equation (eq. S5) [S6]: […]
(1 picture or pasted object on this page, not shown here) […]
where n = the number of binding sites per albumin and K = the SA–binding constant. The K constant (M−1) is calculated from the slope in plots (ΔI/I0)/[Q] versus (ΔI/I0) and n is given by the ratio of y intercept to the slope [S9]. […]

EB-DNA adduct (CT DNA) = experiment: EB-displacement from EB-DNA (fluorescence); type: binding, calf; conditions: for ΔΙ/Ι0 (%) EB-DNA fluorescence quenching: [EB] = 20 μM, [DNA] = 26 μM; for kq (EB-DNA quenching constant): τo = 23 ns; for EB-DNA relative fluorescence emission intensity, % of the initial: λemission = 592 nm, final value
Method: page 8: […] spectroscopy, viscosity measurements and fluorescence emission spectroscopy studies. […] UV-vis spectroscopy was used for the evaluation of the interaction of the compounds with CT DNA, and specifically the possible binding modes of the compounds to CT DNA. Control experiments with DMSO were performed and no changes in the spectra of CT DNA were observed. In order to determine the binding mode, the UV-vis spectra of the compounds were […] concentrations of CT DNA for diverse r (r = [complex]/[DNA]) values. Effective use of the changes […] compounds were calculated by the Wolfe-[…] equation (eq. […] εf) versus [DNA]: (eq. S1) where [DNA] = the concentration of DNA in base pairs, ε f= the extinction coefficient for the free compound at the corresponding λmax, εA = Aobsd/[compound] and εb= the extinction coefficient for the compound in the fully bound form. K b is given by the ratio of slope to the y intercept in plots [DNA]/(εA-εf) versus [DNA]. S3.2 CT DNA-binding studies by viscosity measurements […] presence of increasing amounts of the compounds. The experiments were executed at room temperature and the measurements are devised in a plot (η/η 0)1/3 versus r, where η = the viscosity of DNA in the presence of the compound, and η0 = the viscosity of neat DNA in buffer solution. […] In order to determine and confirm the DNA-binding mode of the compounds, a competitive study with EB as an intercalating marker is performed by fluorescence emission spectroscopy. Therefore, the EB-displacing ability of the compounds from its EB-DNA conjugate was examined. […] solution (150 mM NaCl and 15 mM trisodium citrate at pH 7.0). The potential intercalation of the compounds between the DNA-bases was studied by the addition of a certain amount of the 8 (1 picture or pasted object on this page, not shown here) page 9: compound solution into the EB-DNA adduct solution. The influence of the compounds on the EB- DNA solution was monitored through the changes of the fluorescence emission spectra at excitation wavelength (λex) at 540 nm [S6]. […] Bearing that in mind, the observed quenching of the EB-DNA solution is evidently associated to the displacement of EB from its EB-DNA adduct. The quenching efficiency (KSV) for each compound was assessed according to the Stern - Volmer equation (eq. S2) [S6]: (eq. S2) where I0 and I = the fluorescence emission intensities of EB-DNA in the absence and presence of the quencher, respectively, [Q] = the concentration of the quencher (i.e. compounds). K SV is obtained from the Stern-Volmer plots by the slope of the diagram I0/I versus [Q]. Taking τ0 = 23 ns […] M-1s-1) of the compounds can be determined according to e quation S3: KSV = kqτo (eq. S3) 9 (1 picture or pasted object on this page, not shown here)

[1] = read-out: BSA-binding constant K, Marker: Ibuprofen, ibuprofen 3 μM
[2] = read-out: BSA-binding constant K, Marker: Warfarin, warfarin 3 μM

T2 sequence (P02768 25-609): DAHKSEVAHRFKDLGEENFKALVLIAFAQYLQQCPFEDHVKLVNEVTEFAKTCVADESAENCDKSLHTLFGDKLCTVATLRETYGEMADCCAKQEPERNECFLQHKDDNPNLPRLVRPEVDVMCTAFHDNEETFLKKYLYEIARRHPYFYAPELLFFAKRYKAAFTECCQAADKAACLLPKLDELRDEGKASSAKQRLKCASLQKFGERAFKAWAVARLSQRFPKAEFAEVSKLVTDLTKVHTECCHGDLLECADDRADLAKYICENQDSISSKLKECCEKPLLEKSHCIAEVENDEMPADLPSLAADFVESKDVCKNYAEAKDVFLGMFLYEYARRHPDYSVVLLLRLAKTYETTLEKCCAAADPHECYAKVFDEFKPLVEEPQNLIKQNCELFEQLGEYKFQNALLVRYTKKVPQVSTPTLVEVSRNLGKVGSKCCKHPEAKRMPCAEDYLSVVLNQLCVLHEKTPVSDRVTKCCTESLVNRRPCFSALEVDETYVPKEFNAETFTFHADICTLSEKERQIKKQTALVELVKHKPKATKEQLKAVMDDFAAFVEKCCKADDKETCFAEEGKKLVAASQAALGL
T1 sequence (P02769 25-607): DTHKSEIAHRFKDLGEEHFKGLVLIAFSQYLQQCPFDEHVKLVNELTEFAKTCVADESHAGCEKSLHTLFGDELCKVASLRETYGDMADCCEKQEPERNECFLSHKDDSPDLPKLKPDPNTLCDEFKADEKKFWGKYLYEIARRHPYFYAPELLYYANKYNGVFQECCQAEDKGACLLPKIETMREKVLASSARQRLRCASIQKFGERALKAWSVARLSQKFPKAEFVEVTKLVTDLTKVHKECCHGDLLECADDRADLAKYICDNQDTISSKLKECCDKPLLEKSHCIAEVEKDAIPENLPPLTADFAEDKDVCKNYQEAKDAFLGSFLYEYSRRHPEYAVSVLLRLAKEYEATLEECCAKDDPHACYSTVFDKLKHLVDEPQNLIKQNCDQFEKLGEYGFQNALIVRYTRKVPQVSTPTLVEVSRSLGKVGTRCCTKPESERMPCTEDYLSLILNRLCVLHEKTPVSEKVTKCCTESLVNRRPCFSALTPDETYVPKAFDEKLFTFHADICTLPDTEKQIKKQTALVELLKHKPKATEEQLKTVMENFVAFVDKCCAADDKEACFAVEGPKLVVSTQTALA

| SMILES | Kd (BSA) | Kd (BSA; [1]) | Kd (BSA; [2]) | Kd (HSA) | kq HSA-quenching constant (HSA) | KSV (Stern–Volmer constant), EB-DNA (EB-DNA adduct (CT DNA)) | ΔΙ/Ι0 (%) EB-DNA fluorescence quenching (EB-DNA adduct (CT DNA)) | kq (EB-DNA quenching constant) (EB-DNA adduct (CT DNA)) | BSA-binding constant K, Marker: Ibuprofen (BSA; ibuprofen 3 μM) | BSA-binding constant K, No Marker (BSA) | BSA-binding constant K, Marker: Warfarin (BSA; warfarin 3 μM) | ΔΙ/Ιο (%) HSA fluorescence quenching (HSA) | K HSA-binding constant (HSA) | relative HSA-fluorescence emission intensity, % of the initial (HSA) | EB-DNA relative fluorescence emission intensity, % of the initial (EB-DNA adduct (CT DNA)) | BSA drug site preference (BSA) |
| --- | --- | --- | --- | --- | --- | --- | --- | --- | --- | --- | --- | --- | --- | --- | --- | --- |
| CCN(CC)c1ccc(C=O)c(O)c1 [4-Et2N-saloH, 4-diethylamino-salicylaldehyde, reference compound] | 2.4 µM | 20.6 µM | 7.52 µM | 2.48 µM | 2.10 (±0.22) × 10^13 M^−1 s^−1 | 2.89 (±0.07) × 10^4 M^−1 | 43.4% | 1.25 (±0.03) × 10^12 M^−1s^−1 | – | – | – | – | – | – | – | – |
| COc1ccc(C=O)c(O)c1 [4-OMe-saloH, 4-methoxy-salicylaldehyde, reference compound] | 2.43 µM | 12.7 µM | 68.5 µM | 10.3 µM | 2.28 (±0.13) × 10^12 M^−1 s^−1 | – | – | – | – | – | – | – | – | – | – | – |
| O=Cc1cc(F)ccc1O [5-F-saloH, 5-fluoro-salicylaldehyde, reference compound] | 23.2 µM | 21.7 µM | 33.1 µM | 21.5 µM | 1.96 (±0.07) × 10^12 M^−1 s^−1 | 3.79 (±0.11) × 10^4 M^−1 | 51.3% | 1.73 (±0.05) × 10^12 M^−1s^−1 | – | – | – | – | – | – | – | – |
| CCN(CC)c1ccc(C=O)c([O][Pd][O]c2cc(N(CC)CC)ccc2C=O)c1 [Complex 1, [Pd(4-Et2N-salo)2]] | – | – | – | – | 3.48 (±0.14) × 10^13 M^−1 s^−1 | 1.03 (±0.02) × 10^5 M^−1 | 51.2% | 4.49 (±0.09) × 10^12 M^−1s^−1 | 8.94 (±0.63) × 10^4 M^−1 | 1.08 (±0.06) × 10^5 M^−1 | 9.34 (±0.60) × 10^4 M^−1 | 91.8% | 1.25 (±0.06) × 10^5 M^−1 | 8.2% | 48.8% | – |
| O=Cc1cc(Br)cc(Br)c1[O][Pd][O]c1c(Br)cc(Br)cc1C=O [Complex 2, [Pd(3,5-diBr-salo)2]] | – | – | – | – | 4.22 (±0.13) × 10^13 M^−1 s^−1 | 1.00 (±0.02) × 10^5 M^−1 | 64.8% | 4.35 (±0.10) × 10^12 M^−1s^−1 | 1.05 (±0.09) × 10^5 M^−1 | 1.50 (±0.06) × 10^6 M^−1 | 9.64 (±0.70) × 10^4 M^−1 | 88.8% | 4.12 (±0.15) × 10^5 M^−1 | 11.2% | 35.2% | – |
| O=Cc1cc(Cl)cc(Cl)c1[O-].O=Cc1cc(Cl)cc(Cl)c1[O-].[Pd+2] [Complex 3, [Pd(3,5-diCl-salo)2]] | – | – | – | – | 5.00 (±0.12) × 10^13 M^−1 s^−1 | 7.53 (±0.18) × 10^4 M^−1 | 60.6% | 3.27 (±0.08) × 10^12 M^−1s^−1 | 2.89 (±0.10) × 10^5 M^−1 | 7.82 (±0.24) × 10^5 M^−1 | 3.26 (±0.34) × 10^5 M^−1 | 90.4% | 4.10 (±0.17) × 10^5 M^−1 | 9.6% | 39.4% | – |
| O=Cc1cc(F)ccc1[O-].O=Cc1cc(F)ccc1[O-].[Pd+2] [Complex 4, [Pd(5-F-salo)2]] | – | – | – | – | 1.82 (±0.06) × 10^13 M^−1 s^−1 | 5.71 (±0.10) × 10^4 M^−1 | 51.4% | 2.48 (±0.04) × 10^12 M^−1s^−1 | 9.27 (±0.48) × 10^4 M^−1 | 8.79 (±0.13) × 10^4 M^−1 | 6.05 (±0.27) × 10^4 M^−1 | 75.7% | 1.38 (±0.05) × 10^5 M^−1 | 24.3% | 48.6% | drug site I |
| COc1ccc(C=O)c([O-])c1.COc1ccc(C=O)c([O-])c1.[Pd+2] [Complex 5, [Pd(4-OMe-salo)2]] | – | – | – | – | 6.69 (±0.23) × 10^13 M^−1 s^−1 | 4.26 (±0.08) × 10^4 M^−1 | 44.2% | 1.85 (±0.04) × 10^12 M^−1s^−1 | 6.52 (±0.46) × 10^4 M^−1 | 9.18 (±0.27) × 10^5 M^−1 | 1.46 (±0.14) × 10^5 M^−1 | 92.2% | 3.56 (±0.12) × 10^5 M^−1 | 7.8% | 55.8% | drug site II |
